The nature of data set [1]: Metabolic stability in rat liver microsome with β-NAD+ (Example 27). The format is in vitro ADME. The conditions noted are these: 37° C. The method, then:
A test tube containing 0.1 mol/L potassium phosphate buffer (345 μL, pH 7.4) was cooled on ice, followed by addition of 5 mg/mL rat liver microsome (50 μL), 0.1 mol/L magnesium chloride (50 μL) and a test compound dissolved in ethanol (adjusted to 1 mg/mL, 5 μL). After pre-incubation at 37° C. for 5 minutes, 10 mM β-Nicotinamide-adenine dinucleotide, oxidized form (β-NAD^+) was added to initiate the reaction. The reaction was continued at 37° C. for 0, 5 and 15 minutes, followed by addition of 0.1 mol/L hydrochloric acid (100 μL) and diethyl ether (5 mL) to stop the reaction. The reaction mixture was stirred for 10 minutes and then centrifuged at 3000 rpm for 10 minutes. The upper organic layer (4.5 mL) was transferred to another test tube, evaporated to dryness under a nitrogen stream, dissolved in 40% acetonitrile (200 μL) and then measured for the peak area of the test compound by high performance liquid chromatography. The residual percentage of the test compound at a given point in time was calculated using the following equation: Residual (%)=[(peak area of the test compound at a given time point)/(peak area of the test compound at 0 minutes)]×100
Background: Liver microsomes are vesicles of endoplasmic reticulum, rich in cytochrome P450 enzymes.

The target of data set [2] is T1, human androgen receptor (Homo sapiens, UniProt P10275).
T1 construct: expressed in transfected cells; host or cells: HeLa cells
T1 sequence (P10275 1-920): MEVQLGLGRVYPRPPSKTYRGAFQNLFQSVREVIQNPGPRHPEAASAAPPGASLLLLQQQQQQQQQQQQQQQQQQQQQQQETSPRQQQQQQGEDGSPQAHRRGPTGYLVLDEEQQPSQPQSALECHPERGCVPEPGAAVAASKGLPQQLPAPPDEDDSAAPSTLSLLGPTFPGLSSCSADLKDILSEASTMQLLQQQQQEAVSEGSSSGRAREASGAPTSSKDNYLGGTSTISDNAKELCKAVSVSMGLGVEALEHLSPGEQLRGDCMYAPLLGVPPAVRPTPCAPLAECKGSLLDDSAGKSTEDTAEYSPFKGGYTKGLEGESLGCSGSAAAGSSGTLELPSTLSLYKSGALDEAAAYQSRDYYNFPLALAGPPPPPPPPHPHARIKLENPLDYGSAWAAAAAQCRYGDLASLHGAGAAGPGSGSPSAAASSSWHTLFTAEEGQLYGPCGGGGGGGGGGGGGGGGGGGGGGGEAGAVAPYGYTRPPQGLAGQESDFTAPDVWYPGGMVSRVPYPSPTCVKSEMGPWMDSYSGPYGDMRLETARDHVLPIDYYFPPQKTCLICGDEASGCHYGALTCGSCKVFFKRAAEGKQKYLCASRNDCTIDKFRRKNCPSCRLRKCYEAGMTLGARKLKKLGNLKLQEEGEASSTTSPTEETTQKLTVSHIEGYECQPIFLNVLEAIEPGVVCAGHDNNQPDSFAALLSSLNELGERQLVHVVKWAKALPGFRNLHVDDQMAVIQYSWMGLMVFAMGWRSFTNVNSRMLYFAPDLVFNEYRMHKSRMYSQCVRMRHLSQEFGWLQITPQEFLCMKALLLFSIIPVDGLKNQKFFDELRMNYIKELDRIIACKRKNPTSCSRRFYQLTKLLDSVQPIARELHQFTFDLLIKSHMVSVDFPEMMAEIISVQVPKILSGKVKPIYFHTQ
The experiment in a line: Androgen receptor reporter gene assay, agonistic effects (Example 25). The format is cell-based. Conditions: HeLa cells transfected with MMTV-Luc and pSG5-hAR; 1-10000 nmol/L; 48 h; no DHT. The protocol: Twenty-four hours before transfection, 1.0×10^5 HeLa cells (purchased from Dainippon Pharmaceutical Co., Ltd.) are cultured in a 12-well microplate containing phenol red-free Dulbecco's Modified Eagle Medium (phenol red-free DMEM) supplemented with charcoal-treated FBS (DCC-FBS; 5%). […] Transfection is carried out in phenol red-free DMEM medium using 3 μL/well lipofectamine (Gibco BRL). Nine hours after transfection, the medium is replaced by phenol red-free DMEM/3% DCC-FBS supplemented with 10 μmol/L of the compound of Formula (I) or a salt or ester thereof according to the present invention. Forty-eight hours after replacement of the medium, the transcriptional activity is determined by a Dual-Luciferase Reporter Assay System (promega) according to the following equation: (transcriptional activity)=(firefly luciferase activity)/(Renilla luciferase activity). To effect this assay, reference may be made to J. Biol. Chem., vol. 270, p.
(§1) Twenty-four hours before transfection, 1.0×10^5 HeLa cells were cultured in a 12-well microplate containing phenol red-free DMEM/5% DCC-FBS. The HeLa cells were then transfected with 500 ng/well MMTV-Luc vector, 100 ng/well pSG5-hAR and 5 ng/well Renilla Luc vector. Transfection was carried out in phenol red-free DMEM medium using […] lipofectamine. […] Forty-eight hours after replacement of the medium, the transcriptional activity was determined by a Dual-Luciferase Reporter Assay System according to the following equation: (transcriptional activity)=(firefly luciferase activity)/(Renilla luciferase activity).
The transcriptional activity thus determined was used to calculate agonist activity according to the following equation, which in turn was used to calculate a FI5 value (i.e., a concentration at which the compound provides a 5-fold increase in transcriptional activity as compared to the value obtained in the absence of the compound). Agonist activity=(transcriptional activity in the presence of the compound)/(transcriptional activity in the absence of the compound)
(In a reporter assay the amount or activity of a reporter protein is the signal.)

In data set [3] the target is T1, human androgen receptor. Briefly: Androgen receptor reporter gene assay, antagonistic effects (Example 26). The format is cell-based. The method, then:
Twenty-four hours before transfection, 1.0×10^5 HeLa cells are cultured in a 12-well microplate containing phenol red-free DMEM/5% DCC-FBS. The HeLa cells are then transfected with 500 ng/well MMTV-Luc vector, 100 ng/well pSG5-hAR and 5 ng/well Renilla Luc vector. Transfection is carried out in phenol red-free DMEM medium using 3 μL/well lipofectamine. Nine hours after transfection, the medium is replaced by phenol red-free DMEM/3% DCC-FBS supplemented with 0.1 nmol/L DHT and 1.0 μmol/L of the compound of Formula (I) or a salt or ester thereof according to the present invention. Forty-eight hours after replacement of the medium, the transcriptional activity is determined by a Dual-Luciferase Reporter Assay System according to the following equation: (transcriptional activity)=(firefly luciferase activity)/(Renilla luciferase activity). To effect this assay, reference may be made to J. Biol. Chem., vol. 270, p.
as §1

For data set [4] the following is noted: prostate cancer patients undergoing treatment with flutamide; cited from earlier work.
A further data set addresses androgen receptor (Homo sapiens, UniProt P10275). The conditions noted are these: concentration of 10 μM; cited from earlier work.
The subject of another data set is castrated rats. Conditions: castrated rats continuously administered for two weeks; cited from earlier work.
Setting [5] is: 50% inhibition of transcriptional activity induced by DHT (0.1 nmol/L), HeLa cells transfected with MMTV-Luc and pSG5-hAR, 48 h, read-out: IC50 value.

Read-outs that look alike come from different tables or passages of the source.

We go through eleven compounds from patent publication US20050009797A1, “Androstane derivative having substituent in 7- abd 17--positions” (priority 2001, published 2005).

As for `CN(C)C(=O)CCCCCCC[C@@H]1C[C@H]2CC(=O)CC[C@]2(C)[C@H]2CC[C@]3(C)[C@@H](O)CC[C@H]3[C@H]12` [Comparative Example, 17β-hydroxy-7α-{7-(N,N-dimethylaminocarbonyl)heptyl}-5α-androstan-3-one, reference compound], in data set [1], the “Residual (%) 5 minutes” value is 59.4% and the “Residual (%) 15 minutes” value is reported as 15.1%.

The term IC50 denotes the concentration that gives 50% inhibition. For the compound `C[C@]12CCC(=O)C=C1C[C@@H](CCCCc1cccc(OCCCCC(=O)O)c1)[C@@H]1[C@@H]2CC[C@@]2(C)[C@H]1CC[C@]2(C)O` [Example 1, 17β-hydroxy-17α-methyl-7α-(4-(3-(4-carboxy-butoxy)phenyl)butyl)-4-androsten-3-one], the “FI5 value (concentration giving 5-fold increase in transcriptional activity)” value at human androgen receptor [2] is recorded as “ND* (a FI5 value cannot be calculated because the compound provides less than a 5-fold increase in transcriptional activity even at a concentration of 10000 nM)”. Besides, on human androgen receptor [3] (setting [5]), the IC50 was 0.333 µM.

Regarding `CC12CCC(=O)C=C1CC(CCCCCc1ccc(OCC(=O)O)cc1)C1C2CCC2(C)C1CCC2(C)O` (stereo not shown) [Example 7], the “FI5 value (concentration giving 5-fold increase in transcriptional activity)” value at human androgen receptor [2] was “ND (a FI5 value cannot be calculated because the compound provides less than a 5-fold increase in transcriptional activity even at a concentration of 10000 nM)”. In addition, on human androgen receptor [3] (setting [5]), the 50% inhibitory concentration (IC50) was determined as 5.14 µM.

Regarding `CC12CCC(=O)C=C1CC(CCCCc1cccc(OCCCCCC(=O)O)c1)C1C2CCC2(C)C1CCC2(C)O` (stereo not shown) [Example 13], on human androgen receptor [2], the “FI5 value (concentration giving 5-fold increase in transcriptional activity)” value was “ND (a FI5 value cannot be calculated because the compound provides less than a 5-fold increase in transcriptional activity even at a concentration of 10000 nM)”. Besides, the concentration for half-maximal inhibition (IC50) on human androgen receptor [3] (setting [5]) turned out to be 0.529 µM.

On to `C[C@]12CCC(=O)C=C1C[C@@H](CCCc1ccc(OCCCC(=O)O)cc1)[C@@H]1[C@@H]2CC[C@@]2(C)[C@H]1CC[C@]2(C)O` [Example 18, 17β-hydroxy-17α-methyl-7α-(3-(4-(3-carboxy-propoxy)phenyl)propyl)-4-androsten-3-one], for which, in data set [1], the “Residual (%) 5 minutes” value amounted to 113.7% and the “Residual (%) 15 minutes” value was found to be 110.8%. In addition, on human androgen receptor [2], the “FI5 value (concentration giving 5-fold increase in transcriptional activity)” value is “ND (a FI5 value cannot be calculated because the compound provides less than a 5-fold increase in transcriptional activity even at a concentration of 10000 nM)”. The half-inhibitory concentration (IC50) on human androgen receptor [3] was 0.664 µM.

In the case of `CC12CCC(=O)C=C1CC(CCCc1cccc(OCCCC(=O)O)c1)C1C2CCC2(C)C1CCC2(C)O` (stereo not shown) [Example 20], the “FI5 value (concentration giving 5-fold increase in transcriptional activity)” value on human androgen receptor [2] is recorded as “ND (a FI5 value cannot be calculated because the compound provides less than a 5-fold increase in transcriptional activity even at a concentration of 10000 nM)”. Also, on human androgen receptor [3] (setting [5]), the IC50 was 0.815 µM.

As to `CC12CCC(=O)C=C1CC(CCCc1ccc(CCCCC(=O)O)cc1)C1C2CCC2(C)C1CCC2(C)O` (stereo not shown) [Example 22], the “FI5 value (concentration giving 5-fold increase in transcriptional activity)” value at human androgen receptor [2] is “ND (a FI5 value cannot be calculated because the compound provides less than a 5-fold increase in transcriptional activity even at a concentration of 10000 nM)”. The same compound came in with an IC50 against human androgen receptor [3] of 0.717 µM.

As for `CC12CCC(=O)C=C1CC(CCCc1cccc(CCCCC(=O)O)c1)C1C2CCC2(C)C1CCC2(C)O` (stereo not shown) [Example 24], the “FI5 value (concentration giving 5-fold increase in transcriptional activity)” value at human androgen receptor [2] was “ND (a FI5 value cannot be calculated because the compound provides less than a 5-fold increase in transcriptional activity even at a concentration of 10000 nM)”. Further, the IC50 on human androgen receptor [3] (setting [5]) was 4.04 µM.

Turning to `CC(C)(O)C(=O)Nc1ccc([N+](=O)[O-])c(C(F)(F)F)c1` [Hydroxyflutamide], the blood hydroxyflutamide levels entry in data set [4] is “several”. Also, the “effect on transcriptional activity of androgen receptor” value at androgen receptor is given as “enhance the transcriptional activity of androgen receptor”.

Regarding `CC(=O)O[C@]1(C(C)=O)CC[C@H]2[C@@H]3C=C(Cl)C4=CC(=O)CC[C@]4(C)[C@H]3CC[C@@]21C` [chlormadinone acetate], the prostate weight result in the data set with castrated rats is “increase in their prostate weight”.

In the case of `CC(=O)O[C@]1(C(C)=O)CC[C@H]2[C@@H]3C=C(Cl)C4=CC(=O)[C@@H]5C[C@@H]5[C@]4(C)[C@H]3CC[C@@]21C` [cyproterone acetate], in the data set on castrated rats, the prostate weight entry was “increase in their prostate weight”.
